These results are taken from patent US20210170122A1, “METHOD OF WEIGHT REGULATION USING NEBULIZED NICOTINE” (priority 2016, published 2021).

The procedure of series [1]: The nicotine solution used for nicotine treatment contains 0.05 milligram of nicotine (free base) per milliliter of solution ([…]). The active mesh nebulizer activates the active mesh for a single inhalation period of 3 seconds (0.05 minute) to deliver the dose of nicotine to the patient.
The nicotine solution used for nicotine treatment contains 0.5 milligram of nicotine (free base) per milliliter of solution (0.5 mg/ml). The active mesh nebulizer activates the active mesh for a single inhalation period of 3 seconds (0.05 minute) to deliver the dose of nicotine to the patient.
The nicotine solution used for nicotine treatment contains 0.01 milligram of nicotine (free base) per milliliter of solution (0.01 mg/ml). The active mesh nebulizer activates the active mesh for a single inhalation period of 3 seconds (0.05 minute) to deliver the dose of nicotine to the patient.
The hypothetical patient receives the nicotine dose at a regular interval (e.g., about every 2 hours) for a weight monitoring period (e.g., about 2 months in the present hypothetical example), after which the hypothetical patient is weighed to determine the effect of the nebulized nicotine solution on the hypothetical patient's weight.

This is another data set of the same source.

Molecules are shown by their SMILES.

As to `CN1CCCC1c1cccnc1` (stereo not shown) [nicotine], the “management of nicotine cravings” value in series [1] (Example 1: patient, 2-pack per day smoker, 0.0005 mg dose (0.2 ml/min, 0.05 mg/ml, 3 seconds) by inhalation approximately every two hours) is reported as “sufficient to manage nicotine cravings”. Besides, the “patient's weight versus weight when smoking cigarettes” value in series [1] (Example 1: patient, 2-pack per day smoker, 0.0005 mg dose by inhalation approximately every two hours) is on record as “holding the patient's weight at the same level as when the patient was smoking cigarettes”. In addition, in series [1] (Example 2: patient, 2-pack per day smoker, 0.005 mg dose (0.2 ml/min, 0.5 mg/ml, 3 seconds) by inhalation), the “lethargy, or lassitude” value is recorded as “sufficiently large to produce lethargy, or lassitude”. Moreover, the “effect on patient's weight” value in series [1] (Example 3: hypothetical patient, 0.01 mg/ml solution, 0.2 ml/min, 3 seconds, about every 2 hours for about 2 months) is recorded as “has lost weight”. In addition, under “0.5 mg nicotine/ml (0.05%), single inhalation plume, 0.2 ml/minute for 10 seconds, according to theory and belief”, the “period with no desire for further nicotine inhalation” value was 2 to 3 h. Also, for the setting “1/40 mg nicotine/ml (0.025% nicotine), 0.2 ml/min, nebulization time 10 seconds, according to theory and belief”, the “period of nicotine satiety (no desire for further nicotine inhalation)” value is recorded as “at least two hours”. Also, the “time to brain response” value (in vivo) was “less than 10 seconds”.
